Experiment [1] concerns NIH3T3. Nature of the experiment: Cytoskeleton analysis, actin staining (FITC-phalloidin). The experiment is classed as cell-based, mouse. How it is done:
(§1) Since major rearrangements of cytoskeleton are observed in tumor cells and since the small GTPases are known to regulate these events, analysis of actin cytoskeleton was performed. Subconfluent cells seeded onto coverslips were treated with different concentration of compound (1, 10, 17.5, 25 and 50 μM) or vehicle for 24 h, before being fixed in 4% formaldehyde for 15 min., permeabilized in 0.2% Triton X100 for 5 minutes and incubated in PowerBlock (Biogenex) for 10 min. Actin filaments were stained with 0.5 μg/ml fluorescein isothiocyanate (FITC)-labelled phalloidin for 1 hour. Analysis was performed using an inverted fluorescent microscope.

Experiment [2] concerns MDA-MB-231 cells. Put plainly: Migration assay (Boyden chamber, non-coated filters). It is filed as cell-based, human. The settings on record: MDA-MB-231, Boyden chamber. As for the experimental part: One day after seeding, 10^6 MDA-MB-231 cells were treated overnight with different concentrations of compounds (1, 10, 17.5, 25 and 50 μM). Cells were collected with Versene (Invitrogen), counted with trypan blue exclusion, rinsed twice in serum-free medium containing 0.1% BSA and resuspended in serum-free medium containing 0.1% BSA plus the appropriate concentration of compound. 10^5 treated cells were placed in the upper chamber. Medium containing 10% of FBS plus the appropriate concentration of compound was placed in the lower chamber as a chemoattractant. The Boyden chamber was incubated 6 hours at 37° C. before the cells were fixed and stained with Diff-Quick (Dade-Berhing). Cells on the upper part of the filters were removed using a cotton swab. Cells on the underside of the filters were visualised and counted under light microscope.
The migration assay was performed the same way, using non-coated filters.

For experiment [3], the system named is HCT116 colon adenocarcinoma. Put plainly: Cytotoxicity assay (MTT), 6 days. It is filed as cell-based, human. To be noted: Homo sapiens, HCT-116, 144 h, 6 days of treatment, read-out: Toxicity 6d (IC 50, μM) HCT116. The gist of the method:
(§2)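 Survival is measured by formazan absorbance at 550 nm following 3 h incubation with 0.5 mg/ml MTT at 37° C. Treatment lasts 6 days at compound concentrations up to 50 μM with DMSO held at 1%. The 50% inhibitory concentration derives from surviving fraction.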

Experiment [4] has as its system Ras. Nature of the experiment: Ras-dependant signaling pathway analysis (reporter system). The experiment is classed as cell-based. On the set-up: key: −: no effect of the compound was observed; +: an effect of the compound was observed. As for the experimental part: (§3) The impact of the compounds on Ras and Rac signaling pathways was analysed with two reporter systems described by Imler (Nature 1988) and Lin (Science, 1995) respectively on one hand, and by a colony formation assay in the presence of constitutively activated Ras (RasV12) and Rac (RacV12) on the other hand. For this latter experiment, fifty percent confluent NIH3T3 cells in a 10 cm diameter petri dish were transfected with 0.5 μg pSV2-RasV12 or 0.5 μg pEXV RacV12 plasmids plus 100 ng of pSV2-neomycin plasmid using Lipofectamine-Plus reagent (Invitrogen) according to the manufacturer's instructions. Forty-eight hours later, cells were trypsinised, splitted to ⅓, and incubated in the presence of complete medium supplemented with 400 μg/ml geneticin (Invitrogen) and different doses of compound (1, 10, 17.5, 25 and 50 μM) until emerging resistant clones appear (2-3 weeks). The medium was renewed every 3 days. Colonies with a minimum of 50 cells were counted after staining with Fuschin 2%.

For experiment [5], the system named is MRC-5. Put plainly: Cytotoxicity assay (MTT), 6 days. To be noted: Homo sapiens, MRC5, 144 h, 6 days of treatment, read-out: Toxicity 6d (IC 50, μM) MRC-5. It is filed as cell-based. The method in brief: as §2
In experiment [6] the test system is MCF-7 breast carcinoma. Nature of the experiment: Cytotoxicity assay (MTT), 6 days. The experiment is classed as cell-based. To be noted: Homo sapiens, MCF7, 144 h, 6 days of treatment, read-out: Toxicity 6d (IC 50, μM) MCF7. The gist of the method:
as §2

Experiment [7] relates to MCF10-A. Nature of the experiment: Cytotoxicity assay (MTT), 6 days. It is filed as cell-based. To be noted: Homo sapiens, MCF-10A, 144 h, 6 days of treatment, read-out: Toxicity 6d (IC 50, μM) MCF10-A. The method in brief:
as §2

The subject of experiment [8] is H460 lung carcinoma. Put plainly: Cytotoxicity assay (MTT), 6 days. The experiment is classed as cell-based. The settings on record: Homo sapiens, NCI-H460, 144 h, 6 days of treatment, read-out: Toxicity 6d (IC 50, μM) H460. The method in brief: as §2
In experiment [9] the test system is MDA-MB-231 breast carcinoma. Nature of the experiment: Cytotoxicity assay (MTT), 6 days. To be noted: Homo sapiens, MDA-MB-231, 144 h, 6 days of treatment, read-out: Toxicity 6d (IC 50, μM) MDA231. It is filed as cell-based. The gist of the method:
as §2

Experiment [10] concerns NIH3T3 mouse fibroblasts. Nature of the experiment: Cytotoxicity assay (MTT), 6 days. It is filed as cell-based. To be noted: NIH3T3, 144 h, 6 days of treatment, read-out: Toxicity 6d (IC 50, μM) NIH3T3. The method in brief:
as §2

For experiment [11], the system named is cell architecture. Nature of the experiment: Cell architecture modification, phase contrast. The experiment is classed as cell-based. Details: key: −: no effect of the compound was observed; +: an effect of the compound was observed.
Experiment [12] concerns MDA-MB-231 cells. Nature of the experiment: Matrigel invasion assay (Boyden chamber). The experiment is classed as cell-based, human. The method in brief: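 MDA-MB-231 cells were pretreated overnight with compound (1, 10, 17.5, 25, 50 μM). 10^5 cells in serum-free 0.1% BSA medium with compound were placed on 8 μm membranes coated with Matrigel (125 μg/cm^2), with 10% FBS plus compound below. After 6 h at 37 °C, cells on the filter underside were Diff-Quick stained and counted.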

Experiment [13] relates to H460. Nature of the experiment: Cytoskeleton analysis, actin staining (FITC-phalloidin). It is filed as cell-based, human. To be noted: 24 h treatment. As for the experimental part:
as §1

In experiment [14] the test system is HCT116. The experiment is described as above. The experiment is classed as cell-based, human. The settings on record: 24 h treatment. As for the experimental part: as §1
For experiment [15], the system named is HCT116 cells. Nature of the experiment: Anchorage-independent growth assay (soft agar / Matrigel). The settings on record: Homo sapiens, HCT-116, 168 h; HCT116, 3-dimensional growth, 1 week. The experiment is classed as cell-based, human. How it is done:
In order to evaluate the effect of the compounds on the capacity of tumor cells to grow without anchorage, HCT116 cells were seeded either in agar or in Matrigel (BD, France). For 3D growth experiment in soft agar in 24-well plates, 5.10^3 HCT116 cells were resuspended in 250 μl of complete medium containing 0.3% soft-agar (Difco) and different concentrations of compound (0.1, 1, 10, 17.5, 25 and 50 μM). Cells were then poured on a solidified layer of medium containing 0.5% of soft-agar plus the compound at the same concentration than in the upper layer. Cells were incubated at 37° C. for 1 week before they were analysed using a phase contrast microscope (Nikon). For 3D growth experiment in Matrigel, 10^4 HCT116 cells were resuspended in 300 μl of complete medium containing 5 mg/ml Matrigel (BD, France) and different concentrations of compound (0.1, 1, 10, 17.5, 25 and 50 μM), and poured in 24-well plates. After solidification at 37° C. for 15 min., complete medium containing the compound was added to each well. Cells were incubated for 1 week before they were collected using Matrisperse (BD, France) according to the manufacturer's instructions. After recovery, alive cells were counted with trypan blue exclusion.

Experiment [16] deals with NIH3T3 cells. Put plainly: Colony formation assay with constitutively activated Ras (RasV12) and Rac (RacV12). The experiment is classed as cell-based, mouse. Details: key to Colony formation: −: no effect of the compound was observed; +: an effect of the compound was observed. How it is done:
as §3

We go through one molecule from patent publication US20050054629A1, “Compounds and methods of treating cell proliferative diseases” (priority 2002, published 2005).

Turning to `CCCc1ccccc1OCCCCCOc1coc(CO)cc1=O` [EH18900, 5-[5-(2-Propylphenyloxy)pentyloxy]-2-(hydroxymethyl)-4H-pyran-4-one], the “Cell architecture modification actin staining (R: ruffles; FC: focal complexes) NIH3T3” value in [1] (24 h treatment) was “R-, FC+”. Also, the “concentration at which specific inhibition of membrane ruffles and increase in the number of stress fibers was observed” value in experiment [1] (NIH3T3, actin staining) came out at 10 µM. The Migration result in [2] was “no effect”. Moreover, the IC50 in experiment [3] is 35 µM; in [5], 17.5 µM; in [6], 30 µM; in experiment [7], 50 µM; in experiment [8] it was 40 µM; in experiment [9], more than 50 µM. The IC50 was 0.5 µM in [10] and 1 to 5 µM in experiment [15]. Also, the “Small GTPases activities Ras” value in [4] was “−”. The “Cell architecture modification phase contrast” value in experiment [11] was “+”. In addition, the “concentration giving an increase in invasive properties of MDA-MB-231 cells” value in [12] is 50 µM. Moreover, the Invasion entry in experiment [12] (MDA-MB-231, Boyden chamber, matrigel) is listed as “Increase”. The “Cell architecture modification actin staining H460” value in [13] is recorded as “cell spreading”. Also, the “Cell architecture modification actin staining HCT116” value in experiment [14] is “cell spreading”. Besides, the Colony formation entry in experiment [16] is listed as “+”. For the same molecule, in experiment [16] (NIH3T3 transfected with RasVal12), the “Ras-dependent neoR clones formation” value is “inhibited”.
